We go through five compounds from patent publication US20080118437A1, “Diagnosis and treatment O prostate cancer” (Regents of the University of Michigan, priority 2006, published 2008).

The test system of series [1] is PC-3 cells. Nature of the series: Fluorescence-based migration assay toward hrMCP-1. Format: cell-based, human. The following applies: for PC-3 cell migration, mean fluoresence±SD: 24 hours. The protocol: (§1) Flouresence-based Migration Assay—Cell migration was assessed using the Innocyte Cell Migration Assay (Calbiochem, Inc.) following the manufacturer's instructions. Briefly, increasing concentrations of MCP-1 (1-100 ng/mL) in the presence and absence of CCR2 inhibitors or neutralizing antibodies were added to the lower chamber of a 96 well plate. Cells were harvested by 0.5 μM EDTA release and resuspended at 2.5×10^5 cells/mL in serum free media. 2.5×10^4 cells were added to the upper chamber and allowed to migrate through the membrane with 8 μm pores for 24 hours at 37° C. and 5% CO2 atmosphere. Cells that migrated through the membrane were detached and labeled with Calcein AM and fluorescence was measured using fluorescent plate reader with excitation wavelength of 485 nm and emission wavelength of 520 nm. The experiments were repeated twice and each conditioned was performed in quadruplicate in each experiment.

Series [2] deals with VCaP cells. Nature of the series: Fluorescence-based migration assay toward hrMCP-1. The conditions noted are these: for VCaP cell migration, mean fluoresence±SD: 24 hours. Format: cell-based, human. Here is the method: as §1
The test system of series [3] is PC-3 cells. The experiment in a line: Immunofluorescence of actin rearrangement and lamellipodial formation. It counts as cell-based, human. The protocol: Immunofluorescence-PC-3 cells were plated on glass coverslips and serum starved for 2 hours prior to stimulation. Cells were stimulated with MCP-1 (100 ng/mL) for 30 min in the presence or absence of identified inhibitors. Stimulation with SDF-1 (200 ng/mL) for 30 min was used as a positive control. Cells were fixed in 3.7% paraformaldehyde, methanol-free for 10 min at room temperature then permeablized with 0.5% Triton X-100 for 5 min at room temperature. Cells were rinsed twice with PBS and incubated for 30 minutes at room temperature with 3% bovine serum albumin (BSA) in PBS+0.05% Tween 20 to prepare cells for staining. Cells were incubated with Phalloidin AlexaFluor S68 (Molecular Probes, Inc.) at a 1:40 dilution in BSA solution to label actin. Cells were washed and mounted on coverslips with Pro-Long Antifade containing DAPI (Molecular Probes, Inc.) following manufacturer's instructions. Immunofluoresence was visualized using a multi-photon laser scanning microscope (MPLSM), consisting of a Mai Tai Broadband Ti:Sapphire laser, tuneable between 710-990 nm and a modified Olympus Fluoview 300 confocal microscope with long working distance water immersion IR objectives. Images were captured with a 60× objective (zoom ×2), 800 nm excitation wavelength, 605 nm and 520 nm centered emmission filters.

For series [4], the system named is PC-3Luc cells. Nature of the series: Bioluminescent in vivo model of metastasis (Example 4, antibodies and/or docetaxel). More on the design: species or system male SCID mice. Here is the method:
Bioluminescent imaging of PC-3Luc was preformed as previously described through The University of Michigan Small Animal Imaging Resource facility (MSAIR) (Loberg et al., 2006. Neoplasia. 8:578-586). Briefly, PC-3Luc cells were introduced into male SCID mice (5-6 wks of age) by intracardiac injections. Mice were serially imaged weekly for up to 12 weeks using a CCD IVIS system using a 50 mm lens (Xenogen Corp, Alameda, Calif.) and the results were analyzed using LIVING IMAGE software (Xenogen Corp.). Mice were separated into groups and treatment began at week 2 post-intracardiac injection and mice received 2 mg/Kg antibody twice weekly by intraperitoneal (i.p.) injection (for up to eight weeks) and/or 40 mg/Kg Taxotere i.p. injection once per week for three weeks. Mice were injected with luciferin (40 mg/mL) intraperitoneally and ventral images were acquired 15 min postinjection under 1.75% isofluorane/air anesthesia. Total tumor burden of each animal was calculated using regions of interest (ROIs) that encompassed the entire animal. Animals were sacrificed after week 6 image and individual organs were harvested and immediately placed in formalin.

For series [5], the system named is HBME, HAEC and HDVMEC cells. The experiment in a line: CCL2 synthesis by endothelial cells stimulated with PTHrP. It counts as cell-based, human. The following applies: PTHrP 10 nM. The protocol:
To determine the role of CCL2 in the development of prostate cancer-bone metastasis the level of CCL2 was analyzed by ELISA. […]

For series [6], the system named is MC3T3-E1 subclone 4 (MC-4) OB cells. The experiment in a line: CCL2 ELISA of osteoblast cells stimulated with PTHrP. Format: cell-based, mouse. The conditions noted are these: PTHrP 10 nM; day 7 and day 14 after induced differentiation. The protocol:
VCaP cells were obtained from a lumbar vertebral metastatic lesion through the Rapid Autopsy program at the University of Michigan (Korenchuk et al., 2001; 2: 163-168; Loberg et al., Urol. One. 2006; 24:161-168). Cells were cultured in Dulbecco's Modified Eagle Medium supplemented with 10% Fetal Bovine Serum and 1% antibiotic/antimicotic and incubated at 37° C. PC3 prostate cancer cells were obtained from the American Type Culture Collection (Manassas, Va.). Cells were cultured in RPMI-1640 with L-Glutamine (Cambrex Bioproducts) and supplemented with 10% Fetal Bovine Serum and 1% antibiotic/antimicotic. Cells were incubated at 37° C. and subcultured according to ATCC specifications. MC3T3-E1 subclone 4 cells (MC-4) with high osteoblast differentiation potential were maintained and passaged every 4-5 days as previously described. Briefly, cells were grown in AMEM (Gibco) containing 100 units/ml penicillin and streptomycin and 10% FBS. MC3T3 cells were plated at 40,000-50,000 cells/cm2, and differentiation was induced with the addition of ascorbic acid (50 μg/ml) for 7 days. The culture medium was changed at days 1, 3, 5, and 7. […]
A mouse CCL2 specific ELISA kit was purchased from BD Biosciences (San Diego, Calif.) to measure the protein level of CCL2 in cell culture media. […] Values were calculated from standard curves set up for each assay. […]

The subject of series [7] is primary mouse calvaria osteoblasts. Nature of the series: CCL2 ELISA of primary osteoblasts stimulated with PTHrP. It counts as cell-based. The following applies: maximal response at 2 hours post-stimulation. The protocol:
Primary mouse calvarial cells were isolated as previously described. Briefly, calvaria of newborn mice at day 4 were dissected, isolated, and subjected to sequential digestions in collagenase A (2 mg/ml) and 0.25% trypsin for 20, 40, and 90 minutes. Cells from the third digest were washed, counted, and plated in αMEM with 10% FBS containing 100 U/ml of penicillin and streptomycin. Primary cultures were used without passage. For differentiation, both MC-4 and primary cells were induced to differentiate and form mineralized matrix with the addition of ascorbic acid (50 μg/ml) and β-glycerophosphate (10 mM) with media replacement (every 2 days). In proliferation phase, MC-4 cells were serum staved for 24 h before addition of PTHrP or vehicle for indicated time. Otherwise, cells were treated with PTHrP or vehicle for indicated time without serum starvation.
A mouse CCL2 specific ELISA kit was purchased from BD Biosciences (San Diego, Calif.) to measure the protein level of CCL2 in cell culture media. Assays were performed as recommended by the manufacturer to determine levels of secreted CCL2 in MC-4 or primary cell culture media. Values were calculated from standard curves set up for each assay. The data are based on a triplicate experiments performed independently. Data are shown as mean +SEM in the figures.

The conditions of series [8]: in vivo; cited from earlier work.
Series [9] has as its system PC-3 cells. The experiment in a line: WST-1 proliferation assay with MCP-1 with or without LY294002. The following applies: increasing concentrations, 24-96 hours. Format: cell-based, human. The protocol: (§2) Proliferation Assay-Cells were seeded at a density of 4×10^3 cells/well in a six well plate in regular media. Twenty four hours after seeding the media was changed with serum free media with increasing concentrations of MCP-1(1-100 ng/mL) in the presence of absence of LY294002 (1 μM). Cell growth was determined at 24, 48, 72, and 96 hours after seeding using the WST-1 assay (Pierce Biotech) following the manufacturer's instructions.

The subject of series [10] is VCaP cells. Described as above. The following applies: increasing concentrations, 24-96 hours. It counts as cell-based, human. Here is the method: as §2
The next series deals with LNCaP cells. Nature of the series: WST-1 proliferation assay with MCP-1. Format: cell-based, human. The following applies: compared to vehicle treated controls. The protocol:
as §2
In general terms: Formazan colour is commonly taken as a measure of viable cells.

The test system of series [11] is PC-3 cells. The experiment in a line: Western blot of MCP-1 induced signaling. It counts as cell-based, human. The following applies: MCP-1 100 ng/mL. Here is the method:
(§3) Western Blot-Cells were lysed in RIPA buffer (50 mM Tris-HCl, pH 7.4, 1% NP-40, 150 mM NaCl, 1 mM EDTA, 1 mM PMSF, 1 mM Na3VO4, 1 mM NaF, 1 uM okadaic acid and 1 ug/mL aprotinin, leupeptin and pepstatin). Proteins were separated under reducing conditions by SDS-PAGE and transferred onto nitrocellulose membrane. The membranes were blocked with 5% milk in TBST (0.1% Tween in TBS) for 1 hour at room temperature. They were incubated overnight at 4° C. with primary antibodies. Membranes were washed 3 times prior to incubation with HRP-conjugated secondary antibodies (Cell Signaling, Beverly, Mass.) for 1 hour at room temperature. Protein expression was visualized by ECL chemiluminescent (Promega, Madison, Wis.) and quantitated using Image J software (NCl, Bethesda, Md.).
(Immunoblotting shows a protein as a band on a membrane.)

Series [12] deals with VCaP cells. The experiment in a line: Western blot of MCP-1 induced signaling. It counts as cell-based, human. The following applies: MCP-1 100 ng/mL, time dependent, maximal at 30 min; dose-dependent 0.1-100 ng/mL. The protocol:
as §3

For series [13], the system named is PC-3Luc cells. Nature of the series: WST-1 proliferation assay with hrCCL2 and anti-CCL2 antibodies. Format: cell-based, human. The conditions noted are these: 72 hours, antibodies 30 μg/mL. The protocol:
Cells were seeded at a density of 1×10^5 cells/ml for PC-3Luc cells in a 96 well plate in RPMI+10% FBS (FCS is mentioned in previous section). Twenty-four hours after seeding, media was changed to either serum-free RPMI or RPMI+10% FBS. Cell growth was determined 72 hours later using the WST-1 assay (Pierce Biotech, Inc.) following the manufacturer's instructions.

On to `O=C1Nc2ccccc2C2(CCN(CCc3ccc(C(F)(F)F)cc3)CC2)O1` [RS-102895], for which the “effect on MCP-1 induced dose dependent migration of PC-3 cells” value in the series with PC-3 cells [1] (MCP-1 1-100 ng/mL) is “attenuated”. Also, the “effect on MCP-1 induced dose dependent migration of VCaP cells” value in the series with VCaP cells [2] (MCP-1 1-100 ng/mL) is given as “attenuated”. In addition, the “effect on MCP-1 induced actin rearrangement and lamellipodial formation” value in the series on PC-3 cells [3] (co-incubation with MCP-1 100 ng/mL, RS-102895 1 μM) is “did not prevent actin rearrangement and lamellipodial formation”.
As for `CC(=O)O[C@@]12CO[C@@H]1C[C@H](O)[C@@]1(C)C(=O)[C@H](O)C3=C(C)[C@@H](OC(=O)[C@H](O)[C@@H](NC(=O)OC(C)(C)C)c4ccccc4)C[C@@](O)([C@@H](OC(=O)c4ccccc4)[C@H]21)C3(C)C` [docetaxel, (2R,3S)-N-carboxy-3-phenylisoserine, N-tert-butyl ester, 13-ester with 5b-20-epoxy-12a,4,7b,10b,13a-hexahydroxytax-11-en-9-one 4-acetate 2-benzoate, trihydrate], the “animals of group counted at Wk 6 (tumor regression, Table 2)” value in the series on PC-3Luc cells [4] (Wk 6 = First week after cessation of Taxotere) was 2 of 9. In the series with PC-3Luc cells [4] (Wk 9 = First week after cessation of Antibodies), the “animals of group counted at Wk 9 (tumor regression, Table 2)” value is on record as 1 of 9. In addition, the “total tumor burden at Day 35” value in the series on PC-3Luc cells [4] (antibodies 2 mg/Kg i.p. twice weekly, docetaxel 40 mg/Kg i.p.) is listed as 3.19 % of PBS-treated animals. In addition, the “tumor burden during and after therapy (docetaxel, combination, antibody maintenance)” value with PC-3Luc cells [4] (docetaxel 40 mg/Kg i.p. qw for 3 weeks, antibodies 2 mg/Kg i.p. twice weekly until week 8) is “decrease in tumor burden while receiving therapy”.
On to “PTHrP: Human Parathyroid hormone related protein (PTHrP)-(1-34) from Bachem”, for which the “synthesis of CCL2” value in [5] is “increased their respective synthesis of CCL2”. In addition, the results for the CCL2 expression result in series [6] and in [7] were “rapidly increased within 2 hours” and “increased CCL2 expression”, respectively.
Take “VEGF TRAPR1R2: VEGF TRAP Fc fusion protein (Holash et al.)”: in series [8], the exposure (AUC) is 36.28 µg·days/mL and the Cmax is 16000 ng/mL.
As for “hrMCP-1: Human recombinant MCP-1 (CC chemokine ligand 2) from Chemicon International”, the “PC-3 cell migration, mean fluoresence±SD” value in the series on PC-3 cells [1] (hrMCP-1 1 ng/mL) was 83.53±2.981; with PC-3 cells [1] (hrMCP-1 10 ng/mL), 142.2±2.678; with PC-3 cells [1] (hrMCP-1 100 ng/mL) it was 248.1±0.761. In addition, the “VCaP cell migration, mean fluoresence±SD” value in the series on VCaP cells [2] (hrMCP-1 1 ng/mL) is recorded as 130.6±2.145; in the series on VCaP cells [2] (hrMCP-1 10 ng/mL), 176.1±9.051; in the series with VCaP cells [2] (hrMCP-1 100 ng/mL), 296.5±2.681. Besides, the “proliferation in response to MCP-1” value was “enhanced proliferation” with PC-3 cells [9], “enhanced proliferation” in the series with VCaP cells [10] and “no effect” in the series with LNCaP cells. Besides, the GSK3α/β phosphorylation result in the series with PC-3 cells [11] is listed as “no effect”. Moreover, in the series on PC-3 cells [11], the “p70 S6 kinase phosphorylation” value is recorded as “induced p70 S6 kinase phosphorylation”. The “Akt phosphorylation by immunoblot” value in the series on PC-3 cells [11] (time dependent, maximal at 30 min, dose-dependent 0.1-100 ng/mL) is given as “induced Akt phosphorylation”; with VCaP cells [12], “induced Akt phosphorylation”. For the same compound, the “actin cytoskeleton: finger-like projections and lamellipodia” value with PC-3 cells [3] (MCP-1 100 ng/mL, 30 min, compared to control cells) is listed as “increased formation”. Moreover, the “cell viability (WST-1) as a measure of proliferation, mean ±SD” value in the series on PC-3Luc cells [13] (CCL2 10 ng/mL) was 136.2±7.81; in the series on PC-3Luc cells [13] (CCL2 100 ng/mL) it was 168.15±5.44.

Broadly, the AUC is concentration integrated over time. Broadly, the Cmax is the peak of the concentration-time curve.
